Data published in PMC5826148, “Whole-Cell Screen of Fragment Library Identifies Gut Microbiota Metabolite Indole Propionic Acid as Antitubercular” (Antimicrobial Agents and Chemotherapy, 2018).
≈ marks a conversion by molar mass, not a printed value. Read-outs that look alike come from different tables or passages of the source.

What was measured:
M. tuberculosis H37Rv [1] = assay: M. tuberculosis growth inhibition dose-response (MIC50), turbidity readout; format: cell-based, Mycobacterium tuberculosis; settings: H37Rv, 10 days, read-out: Antibacterial activity (MIC50) M. tuberculosis
M. tuberculosis H37Rv [2] = assay: Bactericidal activity, CFU enumeration on agar after treatment; format: cell-based, Mycobacterium tuberculosis; settings: M. tuberculosis, 1 mM, log CFU/ml reduction from initial inoculum; for log reduction at 1000 µM: Mycobacterium tuberculosis, H37RV, read-out: Bactericidal activity (log reduction) at 1 mM
M. tuberculosis = assay: Growth inhibition in acidic medium (pH 6.2); format: cell-based, Mycobacterium tuberculosis; settings: pH 6.2, read-out: Activity (MIC50) in acidic medium (pH 6.2)
M. bovis BCG Pasteur = assay: microbe, parasite or virus in culture; format: cell-based; settings: for MIC50: Mycobacterium tuberculosis variant bovis BCG, BCG, read-out: Antibacterial activity (MIC50) M. bovis BCG
M. smegmatis = assay: Spectrum of activity: M. smegmatis growth inhibition; format: cell-based; settings: 1 day, read-out: Antibacterial activity (MIC50) M. smegmatis
M. avium = assay: Spectrum of activity: M. avium growth inhibition; format: cell-based; settings: 4 days, read-out: Antibacterial activity (MIC50) M. avium
M. abscessus = assay: Spectrum of activity: M. abscessus growth inhibition; format: cell-based; settings: 3 days, read-out: Antibacterial activity (MIC50) M. abscessus
Staphylococcus aureus = assay: Spectrum of activity: S. aureus growth inhibition; format: cell-based; settings: LB medium, overnight, read-out: Antibacterial activity (MIC50) S. aureus
Escherichia coli = assay: Spectrum of activity: E. coli growth inhibition; format: cell-based; settings: LB medium, overnight, read-out: Antibacterial activity (MIC50) E. coli
mice = settings: 100 mg/kg oral on three consecutive days, monitored 7 days
[3] = design: method as in PMID 24563545; settings: cited from earlier work
[4] = test system: human red blood cells (RBCs); assay: Red blood cell lysis assay; settings: hemolysis
[5] = Pharmacokinetic study in uninfected CD-1 mice; settings: for AUC(0-t) / Cmax: Ave +/- SD, n=3
[6] = Endogenous plasma levels of IPA in naive mice
M. tuberculosis H37Rv [7] = assay: Mouse model of acute M. tuberculosis infection
[8] = Cytotoxicity assay, THP-1 cells (CellTiter 96 AQueous One); settings: human
[9] = Cytotoxicity assay, HepG2 cells (CellTiter 96 AQueous One); settings: human, HepG2 cells
THP-1 cells = assay: Cytotoxicity assay, THP-1 cells (CellTiter 96 AQueous One); settings: read-out: Cytotoxicity THP-1 cells CC50; 24 h
HepG2 cells = assay: Cytotoxicity assay, HepG2 cells (CellTiter 96 AQueous One); settings: read-out: Cytotoxicity HepG2 cells CC50; 24 h
[10] = Mycobacterium tuberculosis, 240 h
[11] = Mycolicibacterium smegmatis, 24 h
[12] = Mycobacteroides abscessus, 72 h
[13] = Day 42, IPA 100 mg/kg, INH 25 mg/kg, oral gavage 6 days/week, 4 weeks

O=C(O)CCc1c[nH]c2ccccc12 [Fragment F1]
MIC50 (M. tuberculosis H37Rv [1]; [10]): 68 µM (≈ 12.9 µg/mL)
log reduction at 1000 µM (M. tuberculosis H37Rv [2]): 1.76
MIC50 (M. tuberculosis; Mycobacterium tuberculosis): 62 µM (≈ 11.7 µg/mL)
MIC50 (M. bovis BCG Pasteur): 98 µM (≈ 18.5 µg/mL)
MIC50 (M. smegmatis; [11]): 477 µM (≈ 90.3 µg/mL)
MIC50 (M. avium; Mycobacterium avium, 96 h): 119 µM (≈ 22.5 µg/mL)
MIC50 (M. abscessus; [12]): > 500 µM
MIC50 (Staphylococcus aureus; Staphylococcus aureus): > 500 µM
MIC50 (Escherichia coli; Escherichia coli): > 500 µM
Acute toxicity: behavior and gross pathology of major organs (mice): None of the mice showed abnormal behavior
logarithm of partition coefficient between n-octanol and water [3]: 2.15
RBCs HC50 [4]: >1,000 μM
time plasma levels above the MIC50 ([5]; 100 mg/kg oral): more than 50 % of the dosing interval
Vd ([5]; CD-1, mouse, plasma, iv, 5 mg/kg): 0.25 L/kg
AUC(0-t) ([5]; CD-1, mouse, plasma, iv, 5 mg/kg, AUC[0-8], Intravenous 5 mg/kg): 72 ± 3 µg·h/mL
AUC(0-t) ([5]; CD-1, mouse, plasma, po, 100 mg/kg, AUC[0-8], Oral 100 mg/kg in CMC (suspension)): 315 ± 88 µg·h/mL
AUC(0-t) ([5]; CD-1, mouse, plasma, po, 100 mg/kg, AUC[0-8], Oral 100 mg/kg in PEG (solution)): 312 ± 59 µg·h/mL
AUC(0-t) ([5]; CD-1, mouse, plasma, po, 100 mg/kg, AUC[0-24], Oral 100 mg/kg in CMC (suspension)): 442 ± 271 µg·h/mL
AUC(0-t) ([5]; CD-1, mouse, plasma, po, 100 mg/kg, AUC[0-24], Oral 100 mg/kg in PEG (solution)): 471 ± 129 µg·h/mL
Cmax ([5]; CD-1, mouse, plasma, po, 100 mg/kg, Oral 100 mg/kg in CMC (suspension)): 67 ± 28 µg/mL
Cmax ([5]; CD-1, mouse, plasma, po, 100 mg/kg, Oral 100 mg/kg in PEG (solution)): 118 ± 10 µg/mL
bioavailability ([5]; CD-1, mouse, plasma, po, 100 mg/kg, F (oral bioavailability), Oral 100 mg/kg in CMC (suspension)): 30.8%
bioavailability ([5]; CD-1, mouse, plasma, po, 100 mg/kg, F (oral bioavailability), Oral 100 mg/kg in PEG (solution)): 32.9%
bioavailability ([5]; CD-1, mouse, plasma, po, 100 mg/kg, oral bioavailability, 100 mg/kg oral): 30 to 33%
Endogenous plasma level, Average ([6]; time 0.25 h): 589 ng/mL
Endogenous plasma level, Average ([6]; time 1 h): 514 ng/mL
Endogenous plasma level, Average ([6]; time 3 h): 455 ng/mL
Endogenous plasma level, Average ([6]; time 5 h): 404 ng/mL
Endogenous plasma level, Average ([6]; time 8 h): 629 ng/mL
reduction of bacterial load in the spleen versus untreated mice (M. tuberculosis H37Rv [7]; 100 mg/kg oral, 6 days/week for 4 weeks): 7 fold
adverse events or abnormal behavior over the course of drug treatment (M. tuberculosis H37Rv [7]; 100 mg/kg, six consecutive days per week for 4 weeks, infected mice): None of the animals showed signs of adverse events or abnormal behavior
Lungs CFU log10, mean difference from drug-free control (M. tuberculosis H37Rv [7]; [13]): -0.28 log10 CFU
Spleen CFU log10, mean difference from drug-free control (M. tuberculosis H37Rv [7]; [13]): -0.82 log10 CFU
CC50 at 24 h [8]: > 1000 µM
CC50 at 24 h [9]: > 1000 µM

NC(=S)COc1cccc(Cl)c1 [Fragment F13, 2-(3-Chlorophenoxy) ethanethioamide]
MIC50 (M. tuberculosis H37Rv [1]): 211 µM (≈ 42.6 µg/mL)
Bactericidal activity (log reduction) at 1 mM (M. tuberculosis H37Rv [2]): 0.90 log reduction
MIC50 (M. tuberculosis): 75 µM (≈ 15.1 µg/mL)
Antibacterial activity (MIC50) M. bovis BCG (M. bovis BCG Pasteur): >500 µM
MIC50 (M. smegmatis): 409 µM (≈ 82.5 µg/mL)
MIC50 (M. avium): 387 µM (≈ 78 µg/mL)
MIC50 (M. abscessus): 289 µM (≈ 58.3 µg/mL)
MIC50 (Staphylococcus aureus): >500 µM
MIC50 (Escherichia coli): >500 µM
RBCs HC50 [4]: 904 µM
CC50 (THP-1 cells): 656 µM
CC50 (HepG2 cells): 467 µM

O=C(O)c1ccc(-c2cccs2)s1 [Fragment F20, [2,2′-Bithiophene]-5-carboxylic acid]
MIC50 (M. tuberculosis H37Rv [1]; [10]): 271 µM (≈ 57 µg/mL)
log reduction at 1000 µM (M. tuberculosis H37Rv [2]): 1.98
MIC50 (M. tuberculosis; Mycobacterium tuberculosis): 170 µM (≈ 35.7 µg/mL)
MIC50 (M. bovis BCG Pasteur): 457 µM (≈ 96.1 µg/mL)
MIC50 (M. smegmatis; [11]): 289 µM (≈ 60.8 µg/mL)
MIC50 (M. avium; Mycobacterium avium, 96 h): > 500 µM
MIC50 (M. abscessus; [12]): 267 µM (≈ 56.1 µg/mL)
MIC50 (Staphylococcus aureus; Staphylococcus aureus): > 500 µM
MIC50 (Escherichia coli; Escherichia coli): > 500 µM
RBCs HC50 [4]: >1,000 μM
CC50 at 24 h [8]: 974 µM
CC50 at 24 h [9]: 765 µM

Cc1cc2cc(N)ccc2[nH]1 [Fragment F21, 2-Methyl-1H-indol-5-amine]
MIC50 (M. tuberculosis H37Rv [1]; [10]): 281 µM (≈ 41.1 µg/mL)
log reduction at 1000 µM (M. tuberculosis H37Rv [2]): 2.5
MIC50 (M. tuberculosis; Mycobacterium tuberculosis): 305 µM (≈ 44.6 µg/mL)
MIC50 (M. bovis BCG Pasteur): 398 µM (≈ 58.2 µg/mL)
MIC50 (M. smegmatis; [11]): 401 µM (≈ 58.6 µg/mL)
MIC50 (M. avium; Mycobacterium avium, 96 h): > 500 µM
MIC50 (M. abscessus; [12]): > 500 µM
MIC50 (Staphylococcus aureus; Staphylococcus aureus): 487 µM (≈ 71.2 µg/mL)
MIC50 (Escherichia coli; Escherichia coli): > 500 µM
RBCs HC50 [4]: >1,000 μM
CC50 at 24 h [8]: 409 µM
CC50 at 24 h [9]: 387 µM

N#Cc1ccc(O)cc1F [Fragment F22, 2-Fluoro-4-hydroxybenzonitrile]
MIC50 (M. tuberculosis H37Rv [1]; [10]): 300 µM (≈ 41.1 µg/mL)
log reduction at 1000 µM (M. tuberculosis H37Rv [2]): 1.6
MIC50 (M. tuberculosis; Mycobacterium tuberculosis): 140 µM (≈ 19.2 µg/mL)
MIC50 (M. bovis BCG Pasteur): 420 µM (≈ 57.6 µg/mL)
MIC50 (M. smegmatis; [11]): 487 µM (≈ 66.8 µg/mL)
MIC50 (M. avium; Mycobacterium avium, 96 h): 317 µM (≈ 43.5 µg/mL)
MIC50 (M. abscessus; [12]): 401 µM (≈ 55 µg/mL)
MIC50 (Staphylococcus aureus; Staphylococcus aureus): 343 µM (≈ 47 µg/mL)
MIC50 (Escherichia coli; Escherichia coli): 202 µM (≈ 27.7 µg/mL)
RBCs HC50 [4]: >1,000 μM
CC50 at 24 h [8]: 677 µM
CC50 at 24 h [9]: 879 µM

CNCc1ccccc1Oc1ccccc1 [Fragment F23, Methyl[(2-phenoxyphenyl)methyl]amine]
MIC50 (M. tuberculosis H37Rv [1]; [10]): 305 µM (≈ 65.1 µg/mL)
log reduction at 1000 µM (M. tuberculosis H37Rv [2]): 1.22
MIC50 (M. tuberculosis; Mycobacterium tuberculosis): > 500 µM
MIC50 (M. bovis BCG Pasteur): 347 µM (≈ 74 µg/mL)
MIC50 (M. smegmatis; [11]): > 500 µM
MIC50 (M. avium; Mycobacterium avium, 96 h): > 500 µM
MIC50 (M. abscessus; [12]): > 500 µM
MIC50 (Staphylococcus aureus; Staphylococcus aureus): > 500 µM
MIC50 (Escherichia coli; Escherichia coli): > 500 µM
RBCs HC50 [4]: >1,000 μM
CC50 at 24 h [8]: 976 µM
CC50 at 24 h [9]: 789 µM
